Experimental findings from ChEMBL document CHEMBL1129848, “Synthesis and evaluation of imidazolidinones as nonpeptide HIV-protease inhibitors” (Bioorg Med Chem Lett, 1997) are described below.

The target of experiment [1] is T1, Human immunodeficiency virus type 1 protease (Human immunodeficiency virus 1, UniProt Q72874). Put plainly: Compound was tested for the inhibitory activity against HIV-protease.
The target in experiment [2] is T1, Human immunodeficiency virus type 1 protease. Put plainly: Inhibition of HIV-protease.

Molecules are shown by their SMILES.

In experiment [1], `O=C1N(Cc2cccc(CO)c2)[C@H](Cc2ccccc2)[C@@H](Cc2ccccc2)N1Cc1cccc(CO)c1` displayed a Ki of 15500 nM.

Take `O=C1N(CC2CC2)[C@H]([C@@H](F)Cc2ccccc2)[C@@H]([C@@H](F)Cc2ccccc2)N1CC1CC1`: the Ki in experiment [2] stood at 980 nM.

As to `O=C1N(Cc2cccc(CO)c2)[C@H](CCc2ccccc2)[C@@H](CCc2ccccc2)N1Cc1cccc(CO)c1`, in experiment [2], affinity was put at a Ki of 55 nM.

Compound `O=C1N(Cc2cccc(CO)c2)[C@H](Cc2ccccc2)CC[C@@H](Cc2ccccc2)N1Cc1cccc(CO)c1` registered a Ki in experiment [2] of 170 nM.

`O=C1N(Cc2cccc(O)c2)[C@H]([C@@H](F)Cc2ccccc2)[C@@H]([C@@H](F)Cc2ccccc2)N1Cc1cccc(O)c1`: in experiment [2], affinity was put at a Ki of 560 nM.

Turning to `O=C1N(Cc2ccc3ccccc3c2)[C@H]([C@@H](F)Cc2ccccc2)[C@@H]([C@@H](F)Cc2ccccc2)N1Cc1ccc2ccccc2c1`, affinity in experiment [2] was put at a Ki of 1400 nM.

Compound `O=C1N(Cc2cccc(CO)c2)[C@H](CCc2ccccc2)C[C@@H](Cc2ccccc2)N1Cc1cccc(CO)c1` yielded a Ki in experiment [2] of 99 nM.

For `O=C(Oc1cccc(CN2C(=O)N(Cc3cccc(OC(=O)c4ccccc4)c3)[C@H]([C@@H](F)Cc3ccccc3)[C@H]2[C@@H](F)Cc2ccccc2)c1)c1ccccc1`, the Ki in experiment [2] came out at 425 nM.

`COC(=O)c1cccc(CN2C(=O)N(Cc3cccc(C(=O)OC)c3)[C@H](CCc3ccccc3)[C@H]2[C@@H](Br)Cc2ccccc2)c1` showed a Ki in experiment [2] of 920 nM.

Compound `N=C(NO)c1cccc(CN2C(=O)N(Cc3cccc(C(=N)NO)c3)[C@H](CCc3ccccc3)[C@H]2CCc2ccccc2)c1` displayed a Ki in experiment [2] of 17 nM.

`COC(=O)c1cccc(CN2C(=O)N(Cc3cccc(C(=O)OC)c3)[C@H](CCc3ccccc3)[C@H]2CCc2ccccc2)c1` displayed a Ki in experiment [2] of 470 nM.

Consider `O=C1N(Cc2cccc(CO)c2)[C@H]([C@@H](O)Cc2ccccc2)[C@@H](CCc2ccccc2)N1Cc1cccc(CO)c1`, for which, in experiment [2], the affinity, expressed as Ki, was 23 nM.

`COC(=O)c1cccc(CN2C(=O)N(Cc3cccc(C(=O)OC)c3)[C@H](CCc3ccccc3)[C@H]2[C@@H](O)Cc2ccccc2)c1` registered a Ki in experiment [2] of 100 nM.

As to `C=CCN1C(=O)N(CC=C)[C@H]([C@@H](F)Cc2ccccc2)[C@H]1[C@@H](F)Cc1ccccc1`, in experiment [2], affinity was put at a Ki of 2500 nM.

For orientation: Ki means a measure of affinity in units of concentration, obtained from inhibition or displacement. High values mean lower affinity, low ones higher affinity.
